These are literature values, as cited in US20030236285A1, “Stabilized pharmaceutical compositions containing benzimidazole compounds” (priority 2002, published 2003).

For this data set the following is noted: pH higher than 7.

Take `Cc1c(OCC(F)(F)F)ccnc1C[S+]([O-])c1nc2ccccc2[nH]1` (stereo not shown) [lansoprazole]: the rate of degradation result is listed as “reduced to negligible”.
